Measured values taken from patent publication US20140004192A1, “PHARMACEUTICAL FORMULATIONS OF INDIBULIN AND USES THEREOF” (Ziopharm Oncology, Inc., priority 2012, published 2014).
Like-named read-outs stand apart in the source and are kept apart here.

How the values were obtained:
[1] = Rat pharmacokinetic study, second study (dose response); format: in vivo, rats; conditions: plasma, po; for AUC(0-t) / Cmax / Tmax: Second Study; for concentration at 0 h / concentration at 0.5 h / concentration at 1 h / concentration at 2 h / concentration at 4 h / concentration at 6 h / concentration at 10 h: second study, read-out: plasma indibulin
Description: The second study was designed to determine the dose response of indibulin plasma concentration with the 10% A SDD formulation. In general, 10% A SDD was administered p.o. at 10, 15 and 20 mg/kg and plasma indibulin concentrations were determined at several time points.
All rats used in the second study were fasted 12 hours prior to dose, and food was returned 4 hours post dose. Indibulin in crystalline form was suspended in 0.5% Methocel A at 10 mg/kg, 15 mg/kg and 20 mg/kg by vortexing and sonicating. The indibulin SDD formulations were made by combining 10% active indibulin SDD at 10 mg/kg, 15 mg/kg and 20 mg/kg in a mortar with 0.5% Methocel A and using a pestle to gradually mix in to solution. There were six rats per group, all animals were weighed and the dose volume calculated so that each rat received the test article orally at a volume of 10 mL/kg. The first three rats in each group were bled at […], 2, and 6 hours post dose; the remaining three rats in each group were bled at 1, 4, and 10 hours post dose. For blood collection at all time points, all animals were anesthetized with an inhalation of 4% isoflurane and 1.5% oxygen; once it was determined that the animal was adequately anesthetized (no reaction to physical stimulation) using a capillary tube the orbital venous plexus was punctured and a volume of 1 mL of blood was collected in to a sodium heparin tube. Once the blood was collected the sodium heparin tube was inverted ten times, and placed on ice until centrifuged for 10 minutes at 2510 rpm. The plasma was decanted into labeled Eppendorfs and stored at −80° C. until analyzed by HPLC with MS/MS Detection. All data were acquired using Applied Biosystems/MDS-Sciex Analyst Version 1.5; processed, and reported using Watson Version 7.3.0.01TM, Thermo Fisher Scientific, Inc.; and are summarized in FIG. 13 and FIG. 14.

[2] = Suspension stability by microcentrifuge dissolution test; format: physicochemical; conditions: dosed into MFDS
Description: Suspension stability of 10% A HPMCAS-H and 25% A HPMCAS-H formulations were evaluated using the microcentrifuge dissolution test, as detailed below.
First, a 0.5 wt % Methocel A (Methylcellulose, Methocel A4M Premium, DOW Chemical Company) vehicle was prepared and later used as the suspension vehicle. Specifically, this vehicle was prepared by adding 0.5 g of Methocel A to 30 mL deionized water at 90° C. and stirring until well dispersed. To the resultant dispersion was added 70 mL of water and the mixture was placed into an ice bath and stirred until Methocel A is dissolved.
A 20 mgA/mL indibulin SDD suspension of each of the 10% A HPMCAS-H and 25% A HPMCAS-H formulations was then prepared by adding the indibulin HPMCAS SDD to the aqueous 0.5 wt % Methocel A vehicle (as prepared above). Each suspension was then tested in the microcentrifuge dissolution test (as described above) immediately after constitution in the aqueous 0.5 wt % Methocel A vehicle (O-hour or Initial), and one hour after the constitution in the aqueous 0.5 wt % Methocel A vehicle. The stability of each suspension was determined by comparing the dissolution profile of the one-hour suspension to the performance of the initial suspension. […]

Compound: O=C(Nc1ccncc1)C(=O)c1cn(Cc2ccc(Cl)cc2)c2ccccc12 [Bulk Crystalline Drug, indibulin]
- AUC(0-t) ([1]; rat p.o. 10 mg/kg (60 mg/m^2)): 48 ng·h/mL
- Cmax ([1]; rat p.o. 10 mg/kg (60 mg/m^2)): 8.6 ng/mL
- Tmax ([1]; rat p.o. 10 mg/kg (60 mg/m^2)): 2 h
- AUC(0-t) ([1]; rat p.o. 15 mg/kg (90 mg/m^2)): 146 ng·h/mL
- Cmax ([1]; rat p.o. 15 mg/kg (90 mg/m^2)): 24 ng/mL
- Tmax ([1]; rat p.o. 15 mg/kg (90 mg/m^2)): 4 h
- AUC(0-t) ([1]; rat p.o. 20 mg/kg (120 mg/m^2)): 110 ng·h/mL
- Cmax ([1]; rat p.o. 20 mg/kg (120 mg/m^2)): 21 ng/mL
- Tmax ([1]; rat p.o. 20 mg/kg (120 mg/m^2)): 4 h
- concentration at 0 h ([1]; rat p.o. 10 mg/kg): 0 ng/mL
- concentration at 0.5 h ([1]; rat p.o. 10 mg/kg): 2 ng/mL
- concentration at 1 h ([1]; rat p.o. 10 mg/kg): 4 ng/mL
- concentration at 2 h ([1]; rat p.o. 10 mg/kg): 9 ng/mL
- concentration at 4 h ([1]; rat p.o. 10 mg/kg): 4 ng/mL
- concentration at 6 h ([1]; rat p.o. 10 mg/kg): 7 ng/mL
- concentration at 10 h ([1]; rat p.o. 10 mg/kg): 2 ng/mL
- concentration at 0 h ([1]; rat p.o. 15 mg/kg): 0 ng/mL
- concentration at 0.5 h ([1]; rat p.o. 15 mg/kg): 10 ng/mL
- concentration at 1 h ([1]; rat p.o. 15 mg/kg): 17 ng/mL
- concentration at 2 h ([1]; rat p.o. 15 mg/kg): 17 ng/mL
- concentration at 4 h ([1]; rat p.o. 15 mg/kg): 24 ng/mL
- concentration at 6 h ([1]; rat p.o. 15 mg/kg): 7 ng/mL
- concentration at 10 h ([1]; rat p.o. 15 mg/kg): 19 ng/mL
- concentration at 0 h ([1]; rat p.o. 20 mg/kg): 0 ng/mL
- concentration at 0.5 h ([1]; rat p.o. 20 mg/kg): 9 ng/mL
- concentration at 1 h ([1]; rat p.o. 20 mg/kg): 12 ng/mL
- concentration at 2 h ([1]; rat p.o. 20 mg/kg): 14 ng/mL
- concentration at 4 h ([1]; rat p.o. 20 mg/kg): 21 ng/mL
- concentration at 6 h ([1]; rat p.o. 20 mg/kg): 7 ng/mL
- concentration at 10 h ([1]; rat p.o. 20 mg/kg): 6 ng/mL
- Cmax90 ([2]; 20 mgA/mL suspension in 0.5 wt % Methocel A, hold time 0 hr): 2000 ng/mL
- AUC90 ([2]; suspension hold time 0 hr): 150 µg·min/mL
